Laboratory results published in PubChem BioAssay (NCI).
“And” between values parts separate entries of the source, which are not always exact repeats. Identical values can stand only once.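 48-hour exposure; five concentrations; linearly interpolated endpoints. At the GI50, growth is halved. Definition used: TGI = concentration required for complete inhibition of growth.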

Assays:
Experiment in all cases: NCI tumour cell line growth inhibition, 48 h
UACC-257 melanoma = system: UACC-257 melanoma
M19-MEL melanoma = system: M19-MEL melanoma
786-0 renal = system: 786-0 renal
K-562 leukemia = system: K-562 leukemia
SNB-19 CNS = system: SNB-19 CNS
UACC-62 melanoma = system: UACC-62 melanoma
SK-MEL-5 melanoma = system: SK-MEL-5 melanoma
HOP-92 NSCLC = system: HOP-92 NSCLC
HL-60(TB) leukemia = system: HL-60(TB) leukemia
HOP-18 NSCLC = system: HOP-18 NSCLC

Question: With `Cc1cccc(C)c1NC(=O)CCC(=O)NC(N)=NC#N` as the molecule, how does the TGI (UACC-257 melanoma) read?
Answer: > 100 µM

Question: What about the TGI (M19-MEL melanoma) of the same molecule?
Answer: > 100 µM

Question: What about the TGI (786-0 renal) of the same molecule?
Answer: > 100 µM

Question: And the TGI (K-562 leukemia)?
Answer: > 100 µM

Question: And the TGI (SNB-19 CNS)?
Answer: > 100 µM

Question: And the TGI (UACC-62 melanoma)?
Answer: > 100 µM

Question: What about the TGI (SK-MEL-5 melanoma) of the same molecule?
Answer: > 100 µM

Question: What about the TGI (HOP-92 NSCLC) of the same molecule?
Answer: > 100 µM

Question: And the TGI (HL-60(TB) leukemia)?
Answer: > 100 µM

Question: What about the TGI (HOP-18 NSCLC) of the same molecule?
Answer: > 100 µM

Question: With `CN(C)NC(=O)/C(=C/c1ccc(Cl)cc1)NC(=O)c1ccccc1` as the molecule, how does the TGI (UACC-257 melanoma) read?
Answer: > 100 µM

Question: What about the TGI (M19-MEL melanoma) of the same molecule?
Answer: > 100 µM

Question: What about the TGI (786-0 renal) of the same molecule?
Answer: > 100 µM

Question: What about the TGI (K-562 leukemia) of the same molecule?
Answer: > 100 µM

Question: And the TGI (SNB-19 CNS)?
Answer: > 100 µM

Question: What about the TGI (UACC-62 melanoma) of the same molecule?
Answer: > 100 µM

Question: What about the TGI (SK-MEL-5 melanoma) of the same molecule?
Answer: > 100 µM

Question: And the TGI (HOP-92 NSCLC)?
Answer: > 100 µM

Question: What about the TGI (HL-60(TB) leukemia) of the same molecule?
Answer: > 100 µM

Question: And the TGI (HOP-18 NSCLC)?
Answer: > 100 µM

Question: Which TGI (UACC-257 melanoma) does the source give for `O=c1nc2sc3ccccc3c(=O)n2[nH]1` here?
Answer: > 100 µM

Question: And the TGI (M19-MEL melanoma)?
Answer: > 100 µM

Question: And the TGI (786-0 renal)?
Answer: > 100 µM

Question: What about the TGI (K-562 leukemia) of the same molecule?
Answer: > 100 µM

Question: And the TGI (SNB-19 CNS)?
Answer: > 100 µM

Question: What about the TGI (UACC-62 melanoma) of the same molecule?
Answer: > 100 µM

Question: What about the TGI (SK-MEL-5 melanoma) of the same molecule?
Answer: > 100 µM

Question: What about the TGI (HOP-92 NSCLC) of the same molecule?
Answer: > 100 µM

Question: What about the TGI (HL-60(TB) leukemia) of the same molecule?
Answer: > 100 µM

Question: And the TGI (HOP-18 NSCLC)?
Answer: > 100 µM

Question: For `Cc1ccccc1NC(=O)/C(=N\NC(N)=S)C(C#N)c1ccccc1` (stereo not given), which TGI (UACC-257 melanoma) is on record?
Answer: > 100 µM

Question: And the TGI (M19-MEL melanoma)?
Answer: > 100 µM

Question: What about the TGI (786-0 renal) of the same molecule?
Answer: > 100 µM

Question: What about the TGI (K-562 leukemia) of the same molecule?
Answer: > 100 µM

Question: What about the TGI (SNB-19 CNS) of the same molecule?
Answer: > 100 µM

Question: What about the TGI (UACC-62 melanoma) of the same molecule?
Answer: > 100 µM

Question: And the TGI (SK-MEL-5 melanoma)?
Answer: > 100 µM

Question: What about the TGI (HOP-92 NSCLC) of the same molecule?
Answer: > 100 µM

Question: What about the TGI (HL-60(TB) leukemia) of the same molecule?
Answer: > 100 µM

Question: What about the TGI (HOP-18 NSCLC) of the same molecule?
Answer: > 100 µM

Question: How did the TGI (UACC-257 melanoma) turn out when `CNC(=O)ON(C(C)=O)C(=O)NC` was run?
Answer: 159 µM

Question: What about the TGI (M19-MEL melanoma) of the same molecule?
Answer: 401 µM

Question: What about the GI50 (786-0 renal) of the same molecule?
Answer: > 93.8 µM

Question: What about the TGI (786-0 renal) of the same molecule?
Answer: 34.4 µM

Question: And the GI50 (K-562 leukemia)?
Answer: 51.8 µM and 26.6 µM

Question: What about the TGI (K-562 leukemia) of the same molecule?
Answer: 241 µM

Question: What about the TGI (SNB-19 CNS) of the same molecule?
Answer: 359 µM

Question: And the GI50 (UACC-62 melanoma)?
Answer: > 88.2 µM

Question: What about the TGI (UACC-62 melanoma) of the same molecule?
Answer: 149 µM

Question: And the TGI (SK-MEL-5 melanoma)?
Answer: 107 µM

Question: What about the GI50 (HOP-92 NSCLC) of the same molecule?
Answer: > 56 µM

Question: What about the TGI (HOP-92 NSCLC) of the same molecule?
Answer: 64.4 µM

Question: And the GI50 (HL-60(TB) leukemia)?
Answer: 14.2 µM and 8.38 µM

Question: What about the TGI (HL-60(TB) leukemia) of the same molecule?
Answer: 37.7 µM and 29.5 µM

Question: What about the TGI (HOP-18 NSCLC) of the same molecule?
Answer: 242 µM
